# Patent publication US20020137929A1, “1 - (3-heterocyclylphenyl) isothiourea, -isourea, -guanidine and -amidine herbicidal agents” (Intellectual Property Department, BASF Aktiengesellschaft, priority 1998, published 2002)
# Experiments:
# GALAP (Galium) = assay: Postemergence herbicidal evaluation; type: in vivo, Galium aparine; details: for Herbicidal rating GALAP: postemergence
# Outline: (§1)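 Visual 0-9 injury score (stand, vigor, malformation, size, chlorosis, appearance vs untreated) taken four to five weeks post-spray, averaged across repeat tests. Test plants about two weeks old; foliar spray of acetone/water (1:1) with 0.5% surfactant delivering ~0.0156-0.500 kg active/ha.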
# [1] = tested on: IPOHE (Morningglory, Ivyleaf); assay: Postemergence herbicidal evaluation; type: in vivo, Ipomoea hederacea; details: for Herbicidal rating IPOHE: postemergence
# Outline: as §1
# SETVI (Foxtail, Green) [2] = assay: Postemergence herbicidal evaluation; type: in vivo, Setaria viridis; details: for Herbicidal rating SETVI: postemergence
# Outline: as §1
# [3] = tested on: TRZAWR (Wheat, Winter, cv Riband); assay: Postemergence herbicidal evaluation; type: in vivo, Triticum aestivum; details: for Herbicidal rating TRZAWR: postemergence
# Outline: as §1
# ABUTH (Velvetleaf) = assay: Preemergence herbicidal evaluation; type: in vivo, Abutilon theophrasti; details: rated 4-5 weeks after treatment
# Outline: (§2)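 Herbicidal effect scored visually, 0-9, at 4 to 5 weeks against a control; compound applied preemergence by aqueous acetone spray to seeded soil at about 0.0156 to 0.500 kg/ha.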
# [4] = tested on: IPOHE (Morningglory, Ivyleaf); assay: Preemergence herbicidal evaluation; type: in vivo, Ipomoea hederacea; details: rated 4-5 weeks after treatment
# Outline: as §2
# ECHCG (Barnyardgrass) = assay: Preemergence herbicidal evaluation; type: in vivo, Echinochloa crus-galli; details: rated 4-5 weeks after treatment
# Outline: as §2
# SETVI (Foxtail, Green) [5] = assay: Preemergence herbicidal evaluation; type: in vivo, Setaria viridis; details: rated 4-5 weeks after treatment
# Outline: as §2
# ZEAMX (Corn, Field) = assay: Preemergence herbicidal evaluation; type: in vivo, Zea mays; details: rated 4-5 weeks after treatment
# Outline: as §2
# [6] = tested on: ECHORC (Watergrass (Calif.)); assay: Preemergence weed control under flooded paddy conditions; type: in vivo, Echinochloa oryzoides; details: rated 3-4 weeks after treatment
# Outline: (§3)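 Ratings on a 0-9 visual scale cover stand, vigor, malformation, size, chlorosis and overall appearance relative to a control, taken three to four weeks post-treatment. Application was into flood water over freshly sown silt loam at roughly 0.0313 to 0.500 kg/ha.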
# CYPIR (Rice Flatsedge) = assay: as above; type: in vivo, Cyperus iria; details: rated 3-4 weeks after treatment
# Outline: as §3
# MOOVA (Monochoria) = assay: as above; type: in vivo, Monochoria vaginalis; details: rated 3-4 weeks after treatment
# Outline: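 Values are visual 0-9 scores against a control for a preemergence application into paddy flood water at about 0.0313 to 0.500 kg/ha. Greenhouse duration was three to four weeks.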
smiles,measurement,setting,value
"Cn1c(C(F)(F)F)cc(=O)n(-c2cc(N=C3SCC(=O)N3CC(=O)OC3CCCC3)c(Cl)cc2F)c1=O [Compound 120, Cyclopentyl 2-{{2-chloro-5-[3,6-dihydro-3-methyl-2,6-dioxo-4-(trifluoromethyl)-1(2H)-pyrimidinyl]-4-fluorophenyl}imino}-4-oxo-3-thiazolidineacetate]",Herbicidal rating GALAP,GALAP (Galium); rate 0.0156 kg/ha,2.0
same,Herbicidal rating GALAP,GALAP (Galium); rate 0.0313 kg/ha,3.0
same,Herbicidal rating GALAP,GALAP (Galium); rate 0.0625 kg/ha,3.0
same,Herbicidal rating IPOHE,[1]; rate 0.0156 kg/ha,9.0
same,Herbicidal rating IPOHE,[1]; rate 0.0313 kg/ha,9.0
same,Herbicidal rating IPOHE,[1]; rate 0.0625 kg/ha,9.0
same,Herbicidal rating SETVI,"SETVI (Foxtail, Green) [2]; rate 0.0156 kg/ha",4.0
same,Herbicidal rating SETVI,"SETVI (Foxtail, Green) [2]; rate 0.0313 kg/ha",9.0
same,Herbicidal rating SETVI,"SETVI (Foxtail, Green) [2]; rate 0.0625 kg/ha",9.0
same,Herbicidal rating TRZAWR,[3]; rate 0.0156 kg/ha,3.5
same,Herbicidal rating TRZAWR,[3]; rate 0.0313 kg/ha,4.5
same,Herbicidal rating TRZAWR,[3]; rate 0.0625 kg/ha,5.0
same,Preemergence herbicidal rating ABUTH,ABUTH (Velvetleaf); rate 0.0156 kg/ha,0.0
same,Preemergence herbicidal rating ABUTH,ABUTH (Velvetleaf); rate 0.0313 kg/ha,9.0
same,Preemergence herbicidal rating ABUTH,ABUTH (Velvetleaf); rate 0.0625 kg/ha,9.0
same,Preemergence herbicidal rating ABUTH,ABUTH (Velvetleaf); rate 0.1250 kg/ha,9.0
same,Preemergence herbicidal rating ABUTH,ABUTH (Velvetleaf); rate 0.2500 kg/ha,9.0
same,Preemergence herbicidal rating IPOHE,[4]; rate 0.0156 kg/ha,0.0
same,Preemergence herbicidal rating IPOHE,[4]; rate 0.0313 kg/ha,0.0
same,Preemergence herbicidal rating IPOHE,[4]; rate 0.0625 kg/ha,0.0
same,Preemergence herbicidal rating IPOHE,[4]; rate 0.1250 kg/ha,4.0
same,Preemergence herbicidal rating IPOHE,[4]; rate 0.2500 kg/ha,9.0
same,Preemergence herbicidal rating ECHCG,ECHCG (Barnyardgrass); rate 0.0156 kg/ha,0.0
same,Preemergence herbicidal rating ECHCG,ECHCG (Barnyardgrass); rate 0.0313 kg/ha,0.0
same,Preemergence herbicidal rating ECHCG,ECHCG (Barnyardgrass); rate 0.0625 kg/ha,0.0
same,Preemergence herbicidal rating ECHCG,ECHCG (Barnyardgrass); rate 0.1250 kg/ha,0.0
same,Preemergence herbicidal rating ECHCG,ECHCG (Barnyardgrass); rate 0.2500 kg/ha,2.0
same,Preemergence herbicidal rating SETVI,"SETVI (Foxtail, Green) [5]; rate 0.0156 kg/ha",0.0
same,Preemergence herbicidal rating SETVI,"SETVI (Foxtail, Green) [5]; rate 0.0313 kg/ha",0.0
same,Preemergence herbicidal rating SETVI,"SETVI (Foxtail, Green) [5]; rate 0.0625 kg/ha",9.0
same,Preemergence herbicidal rating SETVI,"SETVI (Foxtail, Green) [5]; rate 0.1250 kg/ha",9.0
same,Preemergence herbicidal rating SETVI,"SETVI (Foxtail, Green) [5]; rate 0.2500 kg/ha",9.0
same,Preemergence herbicidal rating ZEAMX,"ZEAMX (Corn, Field); rate 0.0156 kg/ha",0.0
same,Preemergence herbicidal rating ZEAMX,"ZEAMX (Corn, Field); rate 0.0313 kg/ha",0.0
same,Preemergence herbicidal rating ZEAMX,"ZEAMX (Corn, Field); rate 0.0625 kg/ha",0.0
same,Preemergence herbicidal rating ZEAMX,"ZEAMX (Corn, Field); rate 0.1250 kg/ha",0.0
same,Preemergence herbicidal rating ZEAMX,"ZEAMX (Corn, Field); rate 0.2500 kg/ha",3.0
same,"herbicidal effect rating, ECHORC",[6]; 0.0313 kg/ha,7.0
same,"herbicidal effect rating, ECHORC",[6]; 0.0625 kg/ha,8.0
same,"herbicidal effect rating, ECHORC",[6]; 0.1250 kg/ha,9.0
same,"herbicidal effect rating, ECHORC",[6]; 0.2500 kg/ha,9.0
same,"herbicidal effect rating, CYPIR",CYPIR (Rice Flatsedge); 0.0313 kg/ha,2.0
same,"herbicidal effect rating, CYPIR",CYPIR (Rice Flatsedge); 0.0625 kg/ha,2.5
same,"herbicidal effect rating, CYPIR",CYPIR (Rice Flatsedge); 0.1250 kg/ha,3.5
same,"herbicidal effect rating, CYPIR",CYPIR (Rice Flatsedge); 0.2500 kg/ha,9.0
same,"herbicidal effect rating, MOOVA",MOOVA (Monochoria); 0.0313 kg/ha,8.5
same,"herbicidal effect rating, MOOVA",MOOVA (Monochoria); 0.0625 kg/ha,9.0
same,"herbicidal effect rating, MOOVA",MOOVA (Monochoria); 0.1250 kg/ha,9.0
same,"herbicidal effect rating, MOOVA",MOOVA (Monochoria); 0.2500 kg/ha,9.0
"COCCCN1C(=O)CSC1=Nc1cc(-n2c(=O)cc(C(F)(F)F)n(C)c2=O)c(F)cc1Cl [Compound 172, 3-{4-Chloro-2-fluoro-5-{[3-(3-methoxypropyl)-4-oxo-2-thiazolidinylidene]amino}phenyl}-1-methyl-6-(trifluoromethyl)-2,4(1H, 3H)-pyrimidinedione]",Postemergence herbicidal rating GALAP,GALAP (Galium); Rate 0.0313 kg/ha,4.0
same,Postemergence herbicidal rating GALAP,GALAP (Galium); Rate 0.0625 kg/ha,7.0
same,Postemergence herbicidal rating GALAP,GALAP (Galium); rate 0.0156 kg/ha,3.0
same,Postemergence herbicidal rating IPOHE,[1]; Rate 0.0313 kg/ha,9.0
same,Postemergence herbicidal rating IPOHE,[1]; Rate 0.0625 kg/ha,9.0
same,Postemergence herbicidal rating IPOHE,[1]; rate 0.0156 kg/ha,9.0
same,Postemergence herbicidal rating SETVI,"SETVI (Foxtail, Green) [2]; Rate 0.0313 kg/ha",3.0
same,Postemergence herbicidal rating SETVI,"SETVI (Foxtail, Green) [2]; Rate 0.0625 kg/ha",2.0
same,Postemergence herbicidal rating SETVI,"SETVI (Foxtail, Green) [2]; rate 0.0156 kg/ha",2.0
same,Postemergence herbicidal rating TRZAWR,[3]; Rate 0.0313 kg/ha,4.5
same,Postemergence herbicidal rating TRZAWR,[3]; Rate 0.0625 kg/ha,4.0
same,Postemergence herbicidal rating TRZAWR,[3]; rate 0.0156 kg/ha,4.0
same,Preemergence herbicidal rating ABUTH,ABUTH (Velvetleaf); 0.0156 kg/ha,9.0
same,Preemergence herbicidal rating ABUTH,ABUTH (Velvetleaf); 0.0313 kg/ha,9.0
same,Preemergence herbicidal rating ABUTH,ABUTH (Velvetleaf); 0.0625 kg/ha,9.0
same,Preemergence herbicidal rating ABUTH,ABUTH (Velvetleaf); 0.1250 kg/ha,9.0
same,Preemergence herbicidal rating ABUTH,ABUTH (Velvetleaf); 0.2500 kg/ha,9.0
same,Preemergence herbicidal rating IPOHE,[4]; 0.0156 kg/ha,2.0
same,Preemergence herbicidal rating IPOHE,[4]; 0.0313 kg/ha,7.0
same,Preemergence herbicidal rating IPOHE,[4]; 0.0625 kg/ha,7.0
same,Preemergence herbicidal rating IPOHE,[4]; 0.1250 kg/ha,9.0
same,Preemergence herbicidal rating IPOHE,[4]; 0.2500 kg/ha,9.0
same,Preemergence herbicidal rating ECHCG,ECHCG (Barnyardgrass); 0.0156 kg/ha,4.0
same,Preemergence herbicidal rating ECHCG,ECHCG (Barnyardgrass); 0.0313 kg/ha,6.0
same,Preemergence herbicidal rating ECHCG,ECHCG (Barnyardgrass); 0.0625 kg/ha,8.0
same,Preemergence herbicidal rating ECHCG,ECHCG (Barnyardgrass); 0.1250 kg/ha,8.0
same,Preemergence herbicidal rating ECHCG,ECHCG (Barnyardgrass); 0.2500 kg/ha,9.0
same,Preemergence herbicidal rating SETVI,"SETVI (Foxtail, Green) [5]; 0.0156 kg/ha",5.0
same,Preemergence herbicidal rating SETVI,"SETVI (Foxtail, Green) [5]; 0.0313 kg/ha",7.0
same,Preemergence herbicidal rating SETVI,"SETVI (Foxtail, Green) [5]; 0.0625 kg/ha",9.0
same,Preemergence herbicidal rating SETVI,"SETVI (Foxtail, Green) [5]; 0.1250 kg/ha",9.0
same,Preemergence herbicidal rating SETVI,"SETVI (Foxtail, Green) [5]; 0.2500 kg/ha",9.0
same,Preemergence herbicidal rating ZEAMX,"ZEAMX (Corn, Field); 0.0156 kg/ha",4.0
same,Preemergence herbicidal rating ZEAMX,"ZEAMX (Corn, Field); 0.0313 kg/ha",7.0
same,Preemergence herbicidal rating ZEAMX,"ZEAMX (Corn, Field); 0.0625 kg/ha",8.0
same,Preemergence herbicidal rating ZEAMX,"ZEAMX (Corn, Field); 0.1250 kg/ha",9.0
same,Preemergence herbicidal rating ZEAMX,"ZEAMX (Corn, Field); 0.2500 kg/ha",9.0
same,"herbicidal effect rating, ECHORC",[6]; 0.0313 kg/ha,6.0
same,"herbicidal effect rating, ECHORC",[6]; 0.0625 kg/ha,9.0
same,"herbicidal effect rating, ECHORC",[6]; 0.1250 kg/ha,9.0
same,"herbicidal effect rating, ECHORC",[6]; 0.2500 kg/ha,9.0
same,"herbicidal effect rating, CYPIR",CYPIR (Rice Flatsedge); 0.0313 kg/ha,5.0
same,"herbicidal effect rating, CYPIR",CYPIR (Rice Flatsedge); 0.0625 kg/ha,7.0
same,"herbicidal effect rating, CYPIR",CYPIR (Rice Flatsedge); 0.1250 kg/ha,8.0
same,"herbicidal effect rating, CYPIR",CYPIR (Rice Flatsedge); 0.2500 kg/ha,9.0
same,"herbicidal effect rating, MOOVA",MOOVA (Monochoria); 0.0313 kg/ha,9.0
same,"herbicidal effect rating, MOOVA",MOOVA (Monochoria); 0.0625 kg/ha,9.0
same,"herbicidal effect rating, MOOVA",MOOVA (Monochoria); 0.1250 kg/ha,9.0
same,"herbicidal effect rating, MOOVA",MOOVA (Monochoria); 0.2500 kg/ha,9.0
